{"source": "patent US20130131059A1", "about": "“METHOD FOR TREATING OPHTHALMIC DISEASES USING KINASE INHIBITOR COMPOUNDS IN PRODRUG FORMS” (INSPIRE PHARMACEUTICALS, INC., priority 2010, published 2013)", "key": {"[1]": {"molecular_target": "T1, ROCK1 (Homo sapiens, UniProt Q13464)", "T1 construct": "purchased Upstate/Chemicon 14-601", "T1 sequence (Q13464 whole entry)": "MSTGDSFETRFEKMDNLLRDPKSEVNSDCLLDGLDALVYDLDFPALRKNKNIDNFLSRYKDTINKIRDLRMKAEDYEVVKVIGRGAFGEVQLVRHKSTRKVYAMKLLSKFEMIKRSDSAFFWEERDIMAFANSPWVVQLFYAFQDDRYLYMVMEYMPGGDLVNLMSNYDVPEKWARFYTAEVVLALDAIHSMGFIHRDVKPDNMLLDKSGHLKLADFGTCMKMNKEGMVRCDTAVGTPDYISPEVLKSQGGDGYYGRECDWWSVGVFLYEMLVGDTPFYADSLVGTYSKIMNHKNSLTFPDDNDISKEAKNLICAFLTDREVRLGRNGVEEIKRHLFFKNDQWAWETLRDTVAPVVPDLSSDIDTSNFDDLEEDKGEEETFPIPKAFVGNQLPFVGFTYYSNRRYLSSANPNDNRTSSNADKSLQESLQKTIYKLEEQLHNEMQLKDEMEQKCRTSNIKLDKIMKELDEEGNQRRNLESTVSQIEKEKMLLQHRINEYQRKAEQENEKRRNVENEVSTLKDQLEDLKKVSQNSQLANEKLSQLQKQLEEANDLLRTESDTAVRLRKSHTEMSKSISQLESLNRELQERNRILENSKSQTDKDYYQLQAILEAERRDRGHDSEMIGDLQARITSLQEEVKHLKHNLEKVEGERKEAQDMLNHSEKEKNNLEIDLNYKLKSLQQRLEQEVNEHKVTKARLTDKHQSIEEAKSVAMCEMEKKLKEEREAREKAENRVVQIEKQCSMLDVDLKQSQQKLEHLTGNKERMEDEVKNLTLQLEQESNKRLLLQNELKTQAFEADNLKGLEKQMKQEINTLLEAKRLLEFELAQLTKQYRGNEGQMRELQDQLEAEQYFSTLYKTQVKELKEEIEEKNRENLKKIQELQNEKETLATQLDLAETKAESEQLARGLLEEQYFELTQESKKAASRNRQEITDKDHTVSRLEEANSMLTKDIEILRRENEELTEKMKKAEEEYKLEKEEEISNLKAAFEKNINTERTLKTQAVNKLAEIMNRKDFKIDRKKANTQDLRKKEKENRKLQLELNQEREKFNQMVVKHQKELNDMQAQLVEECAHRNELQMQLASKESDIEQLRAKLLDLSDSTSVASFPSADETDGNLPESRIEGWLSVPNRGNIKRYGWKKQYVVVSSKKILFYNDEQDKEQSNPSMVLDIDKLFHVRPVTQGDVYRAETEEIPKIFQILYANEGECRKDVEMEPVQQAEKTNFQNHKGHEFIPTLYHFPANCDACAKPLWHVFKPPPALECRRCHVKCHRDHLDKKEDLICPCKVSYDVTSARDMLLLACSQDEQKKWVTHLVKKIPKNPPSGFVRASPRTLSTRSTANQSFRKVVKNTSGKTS", "assay": "Rho kinase inhibition assay (IMAP fluorescence polarization), ROCK1", "assay_type": "biochemical", "procedure": "(§1) Following the pre-incubation, 10 μM ATP was added to initiate the reaction. After 60 minutes at room temperature, Molecular Devices IMAP™ binding solution was added to bind phosphorylated substrate. After 30 minutes of incubation in the presence of the IMAP™ beads, the fluorescence polarization was read and the ratio was reported as mP."}, "[2]": {"molecular_target": "T2, ROCK2 (Homo sapiens, UniProt O75116)", "T2 construct": "purchased Upstate/Chemicon 14-451", "T2 sequence (O75116 whole entry)": "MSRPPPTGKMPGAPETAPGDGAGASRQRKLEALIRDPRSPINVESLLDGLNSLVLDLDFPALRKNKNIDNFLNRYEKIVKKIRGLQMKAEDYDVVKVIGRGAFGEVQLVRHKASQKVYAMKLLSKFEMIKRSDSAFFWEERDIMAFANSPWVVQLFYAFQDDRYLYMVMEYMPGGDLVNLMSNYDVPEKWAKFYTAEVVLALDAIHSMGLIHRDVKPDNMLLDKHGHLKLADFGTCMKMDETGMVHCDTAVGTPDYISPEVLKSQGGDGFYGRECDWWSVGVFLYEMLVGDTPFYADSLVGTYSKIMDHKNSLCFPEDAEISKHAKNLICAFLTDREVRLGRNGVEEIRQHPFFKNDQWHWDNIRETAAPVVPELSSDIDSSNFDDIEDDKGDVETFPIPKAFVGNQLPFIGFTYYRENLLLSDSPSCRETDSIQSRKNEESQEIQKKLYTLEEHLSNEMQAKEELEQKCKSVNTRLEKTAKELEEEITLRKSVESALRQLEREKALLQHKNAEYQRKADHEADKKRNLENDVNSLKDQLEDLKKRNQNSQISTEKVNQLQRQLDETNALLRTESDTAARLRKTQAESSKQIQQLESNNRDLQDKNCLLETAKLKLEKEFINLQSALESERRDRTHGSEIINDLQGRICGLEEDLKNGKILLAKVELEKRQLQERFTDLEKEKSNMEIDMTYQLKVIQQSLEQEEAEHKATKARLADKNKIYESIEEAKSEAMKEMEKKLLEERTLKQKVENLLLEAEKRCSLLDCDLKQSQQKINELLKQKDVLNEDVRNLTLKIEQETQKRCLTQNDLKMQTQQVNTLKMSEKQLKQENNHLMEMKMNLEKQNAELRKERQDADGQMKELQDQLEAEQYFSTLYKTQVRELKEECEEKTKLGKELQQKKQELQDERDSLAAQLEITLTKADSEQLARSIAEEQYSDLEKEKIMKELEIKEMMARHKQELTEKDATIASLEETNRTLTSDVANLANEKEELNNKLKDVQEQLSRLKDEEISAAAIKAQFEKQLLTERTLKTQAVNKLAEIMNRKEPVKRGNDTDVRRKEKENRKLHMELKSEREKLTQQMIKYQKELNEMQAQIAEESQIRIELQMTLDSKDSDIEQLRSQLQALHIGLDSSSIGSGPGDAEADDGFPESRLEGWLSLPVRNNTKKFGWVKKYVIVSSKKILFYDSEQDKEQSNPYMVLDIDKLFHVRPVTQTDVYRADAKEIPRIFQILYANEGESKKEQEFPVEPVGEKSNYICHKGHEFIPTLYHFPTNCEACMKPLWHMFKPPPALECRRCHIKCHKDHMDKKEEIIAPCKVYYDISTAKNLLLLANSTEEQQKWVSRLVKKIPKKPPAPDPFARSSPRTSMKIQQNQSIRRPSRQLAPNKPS", "assay": "Rho kinase inhibition assay (IMAP fluorescence polarization), ROCK2", "assay_type": "biochemical", "settings": "10 μM ATP, 60 min at room temperature", "procedure": "as §1, with “(Molecular Devices product number R7184) was pre-incubated with a test compound for 5 minutes in buffer containing 10 mM Tris-HCl pH 7.2, 10 mM MgCl2, and 0.1% BSA. Following” for “Following”\nSee Tian et al., Arch. Ophthalmol. […] Ophthalmol. Vis. […] Ophthalmol. […] Cytoskel. […] Ophthalmol. Vis. […] Ophthalmol. Vis."}, "[3]": {"assay": "Ocular surface and aqueous humor bioavailability", "assay_type": "in vivo, New Zealand White rabbits", "settings": "New Zealand White, rabbit, topical, 30 μl of 1 mM (0.04% w/v) per eye", "procedure": "Dose Formulation and Administration. Compounds 14 (prodrug) and 49 (base compound) were formulated at 0.04% w/v (the equivalent millimolar concentration is 1 mM) in 10 mM phosphate, 0.8% polysorbate 80, 0.85% NaCl, 0.01% BAC, 0.1% EDTA at pH 7.3. Each compound was administered as a 30 μl drop to both eyes of each animal within a dosing group and the ocular and systemic exposure was examined as described in Example 49.\nStudy sampling. 40 μL of saline was applied to the eyes at 0.083, 1, 2, and 4 hours after administration of each compound and the lavage fluids were collected as samples. Aqueous humor and ocular surface samples were obtained from 2 animals (4 eyes) per dosing group at 0.083, 1, 2, and 4 hours post dosing, by the methods described in Example 49. Ocular surface relates to the surface of the cornea and conjunctiva. Ocular surface residence time is the average time that a compound resides on the ocular surface."}, "[4]": {"settings": "10 μM ATP, 60 min at room temperature, read-out: ROCK1 IC50"}, "[5]": {"settings": "ocular surface (saline lavage fluid)"}}, "note": "Read-outs that look alike come from different tables or passages of the source.", "data": [{"molecule": "OCCOc1cccc(CN2CC[C@@H](Nc3cccc4cnccc34)C2)c1", "note": "[Compound 48, 2-(3-(((R)-3-(isoquinolin-5-ylamino)pyrrolidin-1-yl)methyl)phenoxy)ethanol]", "values": [{"measurement": "IC50", "setting": "[1]", "result": 19, "unit": "nM"}, {"measurement": "IC50", "setting": "[2]", "result": 6.7, "unit": "nM"}]}, {"molecule": "tent-Butyl (3-((3-(1H-indazol-5-ylamino)piperidin-1-yl)methyl)phenyl)methyl carbamate [Compound 40]", "values": [{"measurement": "IC50", "setting": "[2]", "result": 6590, "unit": "nM"}]}, {"molecule": "CCOC(=O)COc1cccc(CN2CCC[C@H](Nc3ccc4[nH]ncc4c3)C2)c1", "note": "[Compound 28]", "values": [{"measurement": "IC50", "setting": "[1]", "result": 1030, "unit": "nM"}, {"measurement": "IC50", "setting": "[2]", "result": 109, "unit": "nM"}]}, {"molecule": "CC(C)CC(=O)OCCOc1cccc(CN2CC[C@@H](Nc3cccc4cnccc34)C2)c1", "note": "[Compound 18, 2-(3-((((R)-3-(isoquinolin-5-ylamino)pyrrolidin-1-yl)methyl)phenoxy)ethyl 3-methylbutanoate)]", "values": [{"measurement": "IC50", "setting": "[1]; [4]", "result": 3820, "unit": "nM"}, {"measurement": "IC50", "setting": "[2]", "result": 1490, "unit": "nM"}]}, {"molecule": "CCOC(=O)c1ccc(CN2CCC[C@@H](Nc3ccc4[nH]ncc4c3)C2)cc1", "note": "[Compound 44, Ethyl 4-(((R)-3-(1H-indazol-5-ylamino)piperidin-1-yl)methyl)benzoate]", "values": [{"measurement": "IC50", "setting": "[1]", "result": 117000, "unit": "nM"}, {"measurement": "IC50", "setting": "[2]", "result": 6190, "unit": "nM"}]}, {"molecule": "O=C(OCCOc1cccc(CN2CC[C@@H](Nc3cccc4cnccc34)C2)c1)c1cccnc1", "note": "[Compound 21, 2-(3-(((R)-3-(isoquinolin-5-ylamino)pyrrolidin-1-yl)methyl)phenoxy)ethyl nicotinate]", "values": [{"measurement": "IC50", "setting": "[1]; [4]", "result": 1910, "unit": "nM"}, {"measurement": "IC50", "setting": "[2]", "result": 512, "unit": "nM"}]}, {"molecule": "CC(C)(C)C(=O)OCCOc1cccc(CN2CC[C@@H](Nc3cccc4cnccc34)C2)c1", "note": "[Compound 20, 2-(3-(((R)-3-(isoquinolin-5-ylamino)pyrrolidin-1-yl)methyl)phenoxy)ethyl pivalate]", "values": [{"measurement": "IC50", "setting": "[1]; [4]", "result": 4810, "unit": "nM"}, {"measurement": "IC50", "setting": "[2]", "result": 1770, "unit": "nM"}]}, {"molecule": "CC1(C(=O)OCCOc2cccc(CN3CC[C@@H](Nc4cccc5cnccc45)C3)c2)CC1", "note": "[Compound 19, 2-(3-(((R)-3-(isoquinolin-5-ylamino)pyrrolidin-1-yl)methyl)phenoxy)ethyl 1-methylcyclopropanecarboxylate]", "values": [{"measurement": "IC50", "setting": "[1]; [4]", "result": 3060, "unit": "nM"}, {"measurement": "IC50", "setting": "[2]", "result": 1050, "unit": "nM"}]}, {"molecule": "CCOC(=O)COc1cccc(CN2CCCC(Nc3ccc4[nH]ncc4c3)C2)c1", "note": "(stereo not drawn) [Compound 41, Ethyl 2-(3-((3-(1H-indazol-5-ylamino)piperidin-1-yl)methyl)phenoxy)acetate]", "values": [{"measurement": "IC50", "setting": "[2]", "result": 87, "unit": "nM"}]}, {"molecule": "CCOC(=O)c1ccc(CN2CCC[C@H](Nc3ccc4[nH]ncc4c3)C2)cc1", "note": "[Compound 45, Ethyl 4-(((S)-3-(1H-indazol-5-ylamino)piperidin-1-yl)methyl)benzoate]", "values": [{"measurement": "IC50", "setting": "[1]", "result": 45500, "unit": "nM"}, {"measurement": "IC50", "setting": "[2]", "result": 6180, "unit": "nM"}]}, {"molecule": "CC(C)(C)OC(=O)COc1cccc(CN2CCC[C@H](Nc3ccc4[nH]ncc4c3)C2)c1", "note": "[Compound 27, tert-Butyl 2-(3-(((S)-3-(1H-indazol-5-ylamino)piperidin-1-yl)methyl)phenoxy) acetate]", "values": [{"measurement": "IC50", "setting": "[1]", "result": 3440, "unit": "nM"}, {"measurement": "IC50", "setting": "[2]", "result": 251, "unit": "nM"}]}, {"molecule": "Cc1ccc(CN2CC[C@@H](Nc3cccc4cnccc34)C2)cc1OCCO", "note": "[Compound 49, [2-(5-(((R)-3-(isoquinolin-5-ylamino)pyrrolidin-1-yl)methyl)-2-methylphenoxy)]ethanol]", "values": [{"measurement": "concentration at 1 h", "setting": "[3]; aqueous humor", "result": 93.9, "unit": "nM"}, {"measurement": "concentration at 2 h", "setting": "[3]; aqueous humor", "result": 24, "unit": "nM"}, {"measurement": "concentration at 4 h", "setting": "[3]; aqueous humor", "result": 3.4, "unit": "nM"}, {"measurement": "concentration at 1 h", "setting": "[3]; [5]", "result": 846, "unit": "nM"}, {"measurement": "concentration at 2 h", "setting": "[3]; [5]", "result": 893, "unit": "nM"}, {"measurement": "concentration at 4 h", "setting": "[3]; [5]", "result": 65.7, "unit": "nM"}, {"measurement": "IC50", "setting": "[1]", "result": 4.1, "unit": "nM"}]}, {"molecule": "Cc1ccc(CN2CCC[C@@H](Nc3ccc4[nH]ncc4c3)C2)cc1OCCOC(=O)c1ccccc1", "note": "[Compound 26, 2-(5-(((R)-3-(1H-indazol-5-ylamino)piperidin-1-yl)methyl)-2-methylphenoxy)ethyl benzoate]", "values": [{"measurement": "IC50", "setting": "[1]; [4]", "result": 6060, "unit": "nM"}, {"measurement": "IC50", "setting": "[2]", "result": 621, "unit": "nM"}]}, {"molecule": "CCOC(=O)OCCOc1cccc(CN2CC[C@@H](Nc3cccc4cnccc34)C2)c1", "note": "[Compound 17, 2-(3-(((R)-3-(isoquinolin-5-ylamino)pyrrolidin-1-yl)methyl)phenoxy)ethyl ethyl carbonate]", "values": [{"measurement": "IC50", "setting": "[1]; [4]", "result": 1220, "unit": "nM"}, {"measurement": "IC50", "setting": "[2]", "result": 369, "unit": "nM"}]}, {"molecule": "CC(=O)NCc1cccc(CN2CCC[C@@H](Nc3ccc4[nH]ncc4c3)C2)c1", "note": "[Compound 42, N-((3-(((R)-3-(1H-indazol-5-ylamino)piperidin-1-yl)methyl)phenyl)methyl) acetamide]", "values": [{"measurement": "IC50", "setting": "[1]", "result": 2420, "unit": "nM"}, {"measurement": "IC50", "setting": "[2]", "result": 341, "unit": "nM"}]}, {"molecule": "O=C(COc1cccc(CN2CCC[C@@H](Nc3ccc4[nH]ncc4c3)C2)c1)Nc1cccnc1", "note": "[Compound 33, 2-(3-(((R)-3-(1H-indazol-5-ylamino)piperidin-1-yl)methyl)phenoxy)-N-(pyridin-3-yl)acetamide]", "values": [{"measurement": "IC50", "setting": "[1]", "result": 1010, "unit": "nM"}, {"measurement": "IC50", "setting": "[2]", "result": 155, "unit": "nM"}]}, {"molecule": "CC(=O)NCCOc1cccc(CN2CCC[C@H](Nc3ccc4[nH]ncc4c3)C2)c1", "note": "[Compound 30, N-(2-(3-(((S)-3-(1H-indazol-5-ylamino)piperidin-1-yl)methyl)phenoxy)ethyl) acetamide]", "values": [{"measurement": "IC50", "setting": "[1]", "result": 5390, "unit": "nM"}, {"measurement": "IC50", "setting": "[2]", "result": 451, "unit": "nM"}]}, {"molecule": "tert-Butyl (4-(((S)-3-(1H-indazol-5-ylamino)piperidin-1-yl)methyl)phenyl) methylcarbamate [Compound 43]", "values": [{"measurement": "IC50", "setting": "[1]; [4]", "result": 25400, "unit": "nM"}, {"measurement": "IC50", "setting": "[2]", "result": 4000, "unit": "nM"}]}, {"molecule": "CC(=O)NCCOc1cccc(CN2CCC[C@@H](Nc3ccc4[nH]ncc4c3)C2)c1", "note": "[Compound 29, N-(2-(3-(((R)-3-(1H-indazol-5-ylamino)piperidin-1-yl)methyl)phenoxy)ethyl) acetamide]", "values": [{"measurement": "IC50", "setting": "[1]", "result": 5160, "unit": "nM"}, {"measurement": "IC50", "setting": "[2]", "result": 987, "unit": "nM"}]}, {"molecule": "O=C(OCCOc1cccc(CN2CCC[C@@H](Nc3ccc4[nH]ncc4c3)C2)c1)c1ccccc1", "note": "[Compound 32, 2-(3-((R)-3-(1H-indazol-5-ylamino)piperidin-1-yl)methyl)phenoxy)ethyl benzoate]", "values": [{"measurement": "IC50", "setting": "[1]", "result": 7080, "unit": "nM"}, {"measurement": "IC50", "setting": "[2]", "result": 3020, "unit": "nM"}]}, {"molecule": "O=C(OCCOc1cccc(CN2CCC[C@H](Nc3ccc4[nH]ncc4c3)C2)c1)c1ccccc1", "note": "[Compound 31, 2-(3-(((S)-3-(1H-indazol-5-ylamino)piperidin-1-yl)methyl)phenoxy)ethyl benzoate]", "values": [{"measurement": "IC50", "setting": "[1]", "result": 5650, "unit": "nM"}, {"measurement": "IC50", "setting": "[2]", "result": 1230, "unit": "nM"}]}, {"molecule": "O=C(COc1cccc(CN2CCC[C@@H](Nc3ccc4[nH]ncc4c3)C2)c1)N1CCOCC1", "note": "[Compound 34, 2-(3-(((R)-3-(1H-indazol-5-ylamino)piperidin-1-yl)methyl)phenoxy)-1-morpholinoethanone]", "values": [{"measurement": "IC50", "setting": "[1]", "result": 1280, "unit": "nM"}, {"measurement": "IC50", "setting": "[2]", "result": 102, "unit": "nM"}]}, {"molecule": "CC(=O)Nc1ccc(CN2CCC(Nc3cccc4cnccc34)C2)cc1", "note": "(stereo not drawn) [Compound 25, N-(4-((3-(isoquinolin-5-ylamino)pyrrolidin-1-yl)methyl)phenyl)acetamide]", "values": [{"measurement": "IC50", "setting": "[2]", "result": 2300, "unit": "nM"}]}]}
